The numbers were not newly measured in US10214534B2, “Substituted 2-phenyl (AZA)benzofuran compounds for the treatment of hepatitis C” (BRISTOL-MYERS SQUIBB COMPANY, priority 2014, dated 2019), which cites them from elsewhere.

In series [1] the test system is HCV. Conditions: cited from earlier work.
For series [2], the system named is HCV. Conditions: cited from earlier work. The source holds these as a separate data set.

On to `CNC(=O)c1c(-c2ccc(F)cc2)oc2cc(N(CCO)S(C)(=O)=O)c(C3CC3)cc12` [HCV-796], for which the “toxicity during extended dosing” value in series [1] (extended dosing of the combination regimens) is “hepatic toxicity”. For the same compound, the “HCV RNA levels in patients” value in series [1] (patients, single agent transient, more robust with interferon and ribavirin) is listed as “reduce HCV RNA levels”. Consider alpha-interferon and ribavirin, for which, in series [2], the “sustained efficacy, share of patients” value is reported as 40%.
